Biological target: T1, human Y4 receptor (Homo sapiens, UniProt P50391)
T1 construct: expressed in transfected cells
Assay: NPY4 cAMP HTRF Agonist Assay (inhibitory cAMP assay, Gi activation by Y4 agonism)
Assay type: cell-based
Conditions: human Y4 receptor, cAMP; read-out: hY4 CAMP EC50
Method in brief: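 Y4 agonism read as lowered forskolin-stimulated cAMP (HTRF, 1 h detection at room temperature). Stable human Y4 CHO clone, 5000 cells/well, incubated 30 min at room temperature with compounds plus forskolin and IBMX in PBS.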

T1 sequence (P50391 whole entry): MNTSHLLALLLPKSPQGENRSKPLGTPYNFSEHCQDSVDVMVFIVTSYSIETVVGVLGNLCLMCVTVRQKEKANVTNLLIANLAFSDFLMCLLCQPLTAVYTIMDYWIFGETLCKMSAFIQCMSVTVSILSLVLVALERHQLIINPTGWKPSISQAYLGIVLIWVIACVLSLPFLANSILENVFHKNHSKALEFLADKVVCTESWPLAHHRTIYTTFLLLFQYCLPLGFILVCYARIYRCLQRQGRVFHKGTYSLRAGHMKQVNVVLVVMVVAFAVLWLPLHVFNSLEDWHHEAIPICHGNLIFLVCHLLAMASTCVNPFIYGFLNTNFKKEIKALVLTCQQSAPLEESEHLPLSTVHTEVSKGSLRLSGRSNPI

| Compound | EC50 |
| --- | --- |
| NC(=O)c1cccc(-c2cnc(N[C@@H]3CCCC[C@H]3N[C@H]3CCCN(c4ccc(F)cc4)C3)o2)c1 [Example 461] | 55 nM |
| Cc1nc(-c2ncc(N3CCC[C@H](N[C@@H]4CCCC[C@H]4Nc4cc(C#N)ccn4)C3)cn2)no1 [Example 469] | 96 nM |
| NC(=O)c1cccc(-c2cnc(N[C@@H]3CCCC[C@H]3N[C@H]3C[C@@H]4C[C@H]3N(c3cnc(C(F)(F)F)cn3)C4)o2)c1 [Example 470] | 162 nM |
| NC(=O)c1cccc(-c2ccnc(N[C@@H]3CCCC[C@H]3N[C@H]3C[C@@H]4C[C@H]3N(c3cnc(C(F)(F)F)cn3)C4)c2)c1 [Example 471] | 329 nM |
| NC(=O)c1cccc(-c2ccnc(N[C@@H]3CCCC[C@H]3N[C@H]3CCCN(c4cnc(C(F)(F)F)cn4)C3)c2)c1 [Example 473] | 79 nM |
| C[C@]1(N[C@@H]2CCCC[C@H]2Nc2cc(-c3cccc(C(N)=O)c3)ccn2)CCCN(c2cnc(C(F)(F)F)cn2)C1 [Example 474] | 142 nM |
| C[C@]1(N[C@@H]2CCCC[C@H]2Nc2ncc(-c3cccc(C(N)=O)c3)o2)CCCN(c2cnc(C#N)cn2)C1 [Example 476] | 49 nM |
| N#Cc1cnc(N2CCC[C@H](N[C@@H]3CCCC[C@H]3Nc3cc(-c4cccc(C(N)=O)c4)ccn3)C2)cn1 [Example 477] | 775 nM |
| N#Cc1ccc(N2CCCC(N[C@@H]3CCCC[C@H]3Nc3ncc(-c4cccc(C(N)=O)c4)o3)C2)nn1 (stereo partly drawn) [Example 479] | 333 nM |
| FC(F)(F)Oc1ccc(-c2cnc(N[C@@H]3CCCC[C@H]3N[C@H]3CCCN(c4ccc5ncnn5c4)C3)o2)cc1 [Example 482] | 107 nM |
| COC(=O)c1cccc(-c2cnc(N[C@@H]3CCCC[C@H]3N[C@H]3CCCN(c4ccc5ncnn5c4)C3)o2)c1 [Example 484] | 312 nM |
| CNC(=O)c1cccc(-c2cnc(N[C@@H]3CCCC[C@H]3N[C@H]3CCCN(c4ccc5ncnn5c4)C3)o2)c1 [Example 485] | 58 nM |
| O=C(NC1CC1)c1cccc(-c2cnc(N[C@@H]3CCCC[C@H]3N[C@H]3CCCN(c4ccc5ncnn5c4)C3)o2)c1 [Example 486] | 78 nM |
| CC(C)(C)OC(=O)Nc1cccc(-c2cnc(N[C@@H]3CCCC[C@H]3N[C@H]3CCCN(c4ccc5ncnn5c4)C3)o2)c1 [Example 488] | 699 nM |
| Cc1nc2ccc(N3CCC[C@H](N[C@@H]4CCCC[C@H]4Nc4ncc(-c5ccc(F)cc5F)o4)C3)cn2n1 [Example 493] | 47 nM |
| Cc1nc2ccc(N3CCC[C@H](N[C@@H]4CCCC[C@H]4Nc4ncc(-c5cccc(C(=O)NC6CC6)c5)o4)C3)cn2n1 [Example 494] | 42 nM |
| COC(=O)c1cccc(-c2cnc(N[C@@H]3CCCC[C@H]3N[C@H]3CCCN(c4ccc5nc(C)nn5c4)C3)o2)c1 [Example 495] | 49 nM |
| Cc1nc2ccc(N3CCC[C@H](N[C@@H]4CCCC[C@H]4Nc4ncc(-c5cc(F)c(F)cc5F)o4)C3)cn2n1 [Example 497] | 46 nM |
| Cc1nc2ccc(N3CCC[C@H](N[C@@H]4CCCC[C@H]4Nc4ncc(-c5cc(F)c(F)c(F)c5)o4)C3)cn2n1 [Example 498] | 63 nM |

More lines, in order of falling EC50, values ahead:

| EC50 | Compound |
| --- | --- |
| 42 nM | CNC(=O)c1cccc(-c2ccnc(N[C@@H]3CCCC[C@H]3N[C@H]3CCCN(c4cnc(-c5noc(C)n5)nc4)C3)c2)c1 [Example 464] |
| 39 nM | Cc1nc(-c2ncc(N3CCC[C@H](N[C@@H]4CCCC[C@H]4Nc4cc(-c5cccc(C(N)=O)c5)ccn4)C3)cn2)no1 [Example 463] |
| 38 nM | Cc1nc2ccc(N3CCC[C@H](N[C@@H]4CCCC[C@H]4Nc4ncc(-c5ccc(F)c(F)c5)o4)C3)cn2n1 [Example 492] |
| 34 nM | NC(=O)c1cccc(-c2ccnc(N[C@@H]3CCCC[C@H]3N[C@H]3CCCN(c4ccc5ncnn5c4)C3)c2)c1 [Example 481] |
| 28 nM | Cn1cnc(-c2ccc(N3CCC[C@H](N[C@@H]4CCCC[C@H]4Nc4cc(-c5cccc(O)c5)ccn4)C3)cc2)n1 [Example 456] |
| 26 nM | Cn1cnc(-c2ccc(N3CCC[C@H](N[C@@H]4CCCC[C@H]4Nc4cc(-c5ccc(F)c(F)c5)ccn4)C3)cc2)n1 [Example 457] |
| 25 nM | N#Cc1cnc(N2CCC[C@H](N[C@@H]3CCCC[C@H]3Nc3ncc(-c4cccc(C(N)=O)c4)o3)C2)cn1 [Example 478] |
| 22 nM | Cc1nc2ccc(N3CCC[C@H](N[C@@H]4CCCC[C@H]4Nc4cc(-c5cccc(C(N)=O)c5)ccn4)C3)cn2n1 [Example 491] |
| 17 nM | NC(=O)c1cccc(-c2cnc(N[C@@H]3CCCC[C@H]3N[C@H]3CCCN(c4ccc5ncnn5c4)C3)o2)c1 [Example 480] |
| 16 nM | O=C(Nc1cccc(-c2cnc(N[C@@H]3CCCC[C@H]3N[C@H]3CCCN(c4ccc5ncnn5c4)C3)o2)c1)C1CC1 [Example 487] |
| 9 nM | Cc1nc(-c2ncc(N3CCC[C@H](N[C@@H]4CCCC[C@H]4Nc4cc(-c5ccc(F)cc5F)ccn4)C3)cn2)no1 [Example 468] |
| 9 nM | C[C@]1(N[C@@H]2CCCC[C@H]2Nc2ncc(-c3cccc(C(N)=O)c3)o2)CCCN(c2cnc(C(F)(F)F)cn2)C1 [Example 472] |
| 8 nM | NC(=O)c1cccc(-c2ccnc(N[C@@H]3CCCC[C@H]3N[C@H]3CCCN(c4ccc(OC(F)(F)F)cc4)C3)c2)c1 [Example 462] |
| 8 nM | NC(=O)c1cccc(-c2cnc(N[C@@H]3CCCC[C@H]3N[C@H]3CCCN(c4cnc(C(F)(F)F)cn4)C3)o2)c1 [Example 475] |
| 4 nM | Cn1nnc(-c2ccc(N3C[C@@H]4C[C@H](N[C@@H]5CCCC[C@H]5Nc5cc(-c6cccc(C(N)=O)c6)ccn5)[C@H]3C4)cc2)n1 [Example 460] |
| 4 nM | COC(=O)Nc1cccc(-c2cnc(N[C@@H]3CCCC[C@H]3N[C@H]3CCCN(c4ccc5ncnn5c4)C3)o2)c1 [Example 483] |
| 4 nM | CNC(=O)c1cccc(-c2cnc(N[C@@H]3CCCC[C@H]3N[C@H]3CCCN(c4ccc5nc(C)nn5c4)C3)o2)c1 [Example 496] |
| 3 nM | Cc1nc2ccc(N3CCC[C@H](N[C@@H]4CCCC[C@H]4Nc4ncc(-c5cccc(C(N)=O)c5)o4)C3)cn2n1 [Example 489] |
| 2 nM | COC(=O)Nc1cccc(-c2ccnc(N[C@@H]3CCCC[C@H]3N[C@H]3CCCN(c4ccc(-c5ncn(C)n5)cc4)C3)c2)c1 [Example 455] |
| 2 nM | Cc1nc(-c2ncc(N3CCC[C@H](N[C@@H]4CCCC[C@H]4Nc4cc(-c5ccc(F)c(F)c5)ccn4)C3)cn2)no1 [Example 467] |
| 1.4 nM | Cn1nnc(-c2ccc(N3CCC[C@H](N[C@@H]4CCCC[C@H]4Nc4ncc(-c5ccc(OC(F)(F)F)cc5)o4)C3)cc2)n1 [Example 499] |
| 1 nM | NC(=O)c1cccc(-c2cnc(N[C@@H]3CCCC[C@H]3N[C@H]3CCCN(c4ccc(OC(F)(F)F)cc4)C3)o2)c1 [Example 459] |
| 1 nM | COC(=O)Nc1cccc(-c2cnc(N[C@@H]3CCCC[C@H]3N[C@H]3CCCN(c4cnc(-c5noc(C)n5)nc4)C3)o2)c1 [Example 466] |
| 1 nM | COC(=O)Nc1cccc(-c2cnc(N[C@@H]3CCCC[C@H]3N[C@H]3CCCN(c4ccc5nc(C)nn5c4)C3)o2)c1 [Example 490] |
| 0.2 nM | COC(=O)Nc1cccc(-c2ccnc(N[C@@H]3CCCC[C@H]3N[C@H]3CCCN(c4ccc(-c5noc(C6CC6)n5)cc4)C3)c2)c1 [Example 458] |
| 0.02 nM | COC(=O)Nc1cccc(-c2ccnc(N[C@@H]3CCCC[C@H]3N[C@H]3CCCN(c4cnc(-c5noc(C)n5)nc4)C3)c2)c1 [Example 465] |

From patent US8815909B2, “Diaminocyclohexane compounds and uses thereof” (Bristol-Myers Squibb Company, priority 2011, dated 2014)
